According to patent US20110105544A1, “CARBOXYLIC DERIVATIVES FOR USE IN THE TREATMENT OF CANCER” (priority 2007, published 2011):

How the values were obtained:
human recombinant HDAC 2 = biological target: T1, human recombinant HDAC 2 (Homo sapiens, UniProt Q92769); test: HDAC inhibition assay (Fluor de Lys), HDAC2; format: biochemical; details: inhibitor-protein incubation 2 hours, reaction 1 h 30 min, 37° C.
T1 construct: purchased BPS Bioscience 50002

human recombinant HDAC 8 = biological target: T2, human recombinant HDAC 8 (Homo sapiens, UniProt Q9BY41); test: HDAC inhibition assay (Fluor de Lys), HDAC8; format: biochemical; details: inhibitor-protein incubation 0 hours, reaction 3 hours, 37° C.
T2 construct: purchased BPS Bioscience 50008
T2 sequence (Q9BY41 1-377): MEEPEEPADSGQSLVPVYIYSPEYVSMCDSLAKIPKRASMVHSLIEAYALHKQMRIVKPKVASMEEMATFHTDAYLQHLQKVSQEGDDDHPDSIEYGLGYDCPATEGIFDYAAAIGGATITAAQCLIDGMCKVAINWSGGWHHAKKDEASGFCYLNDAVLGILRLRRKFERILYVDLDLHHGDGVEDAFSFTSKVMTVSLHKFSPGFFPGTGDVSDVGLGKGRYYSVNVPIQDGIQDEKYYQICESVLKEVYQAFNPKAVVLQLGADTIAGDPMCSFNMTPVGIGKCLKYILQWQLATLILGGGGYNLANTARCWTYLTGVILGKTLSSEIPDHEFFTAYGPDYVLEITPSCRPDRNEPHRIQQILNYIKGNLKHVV
Experimental: (§1) All assays were carried out in the assay buffer: 50 mM Tris/Cl, pH 8.0, 137 mM NaCl, 2.7 mM KCl, 1 mM MgCl2).
(§2) Reactions were carried out in a 96-wells microplate (Corning 96 well Flat Bottom Non-binding surface (black) ref. 3651).
(§3) Potential inhibitors were added after five fold serial dilutions in DMSO. Final DMSO concentration in the assay microplate was kept at 2%.
(§4) Afterwards, human recombinant HDAC1, HDAC 2 or HDAC 8 were added up to […] respectively in assay buffer. When necessary, the mixture was incubated at room temperature prior the addition of substrate.
(§5) Total reaction volume of 50 μl. Human recombinant HDACs could be acquired from commercial sources (HDAC1: ref. #50001, BPS Bioscience™; HDAC 2: ref. #50002, BPS Bioscience™; HDAC 8: ref. #50008, BPS Bioscience™).
(§6) Reactions were stopped with 50 μl Developer (KI-105 Fluor de Lys™, BIOMOL®) with 2 μmol/L trichostatin A (TSA, final concentration 1 μmol/L). After 20 minutes at 37° C., fluorescence (excitation 360 nm, emission 460 nm) was measured using an Infinite F200 fluorimeter (Tecan). Background was determined in reactions using substrate in the absence of enzyme.
IC50 values are defined as the compound concentration at which the deacetylase activity is 50% inhibited. In these assays the following grading was used (I: IC50≦10 μM; II: 10 μM<IC50≦100 μM; III: 100 μM<IC50≦1 mM) The results obtained are summarized in Table 4.

[1] = test system: human breast cancer cell line MCF-7; test: alamarBlue viability assay, MCF-7; format: cell-based; details: MCF7, 72 hours, dose required to inhibit cell growth by 50%
Experimental: The human colon cancer cell line HCT116 and the human breast cancer cell line MCF-7 were from the American Type Culture Collection (ATCC; CCL-247 and HTB-22, respectively).
The HCT116 cell line was maintained in DMEM GlutaMAX (Invitrogen) supplemented with 10% fetal calf serum and the MCF7 cell line was maintained in RPMI1640 GlutaMAX (Invitrogen) containing 1 mM sodium piruvate and 10% fetal calf serum.
(§7) Cells were grown in a humidified incubator at 37° C. in 5% CO2.
(§8) Cells were plated in 96-well plates at a density of 6000 cells/well in 100 μl medium 24 h before addition of drugs. […] To do so, a drugs-dilution plate at twice the screening concentrations was prepared. 72 hours later, alamarBlue (Biosource, Invitrogen) viability assay was performed following manufacturer's protocol. In brief, alamarBlue diluted in media was added to cells to have a 5% solution. Cells were incubated at 37° C., 3 hours and at room temperature, 30 min. Cells with no drug and, cells with no drug and lysed with triton X-100 were used as controls. Fluorescence was monitored at 530 nm excitation and 590 nm emission wavelengths. Results were quantified using Infinite F200 Microplate Reader (Tecan Group, Ltd.). EC50 were calculated as the dose of drugs required to inhibit cell growth by 50%, with Origin 7.0 computer program.

human recombinant HDAC1 = biological target: T3, human recombinant HDAC1 (Homo sapiens, UniProt Q13547); test: HDAC inhibition assay (Fluor de Lys), HDAC1; format: biochemical; details: inhibitor-protein incubation 0 hours, reaction 3 hours, 25° C.
T3 construct: purchased BPS Bioscience 50001
Experimental: as §1, §2, §3, §4, §5, §6
(§9) IC50 values are defined as the compound concentration at which the deacetylase activity is 50% inhibited. […]

[2] = test system: human colon cancer cell line HCT116; test: alamarBlue viability assay, HCT116; format: cell-based; details: HCT-116, 72 hours, dose required to inhibit cell growth by 50%
MDA-MB-435P (breast) = test: alamarBlue viability assay, MDA-MB-435P; format: cell-based; details: 72 hours
Experimental: (§10) Additionally, the following cancer cell lines were used:
as §7
(§11) Cells were plated in 96-well plates at a density of 6000 cells/well in 100 μl medium 24 h before addition of drugs. They were then added in concentrations from 100 μM to 0.45 nM (each concentration in triplicate). To do so, a drugs-dilution plate at twice the screening concentrations was prepared. 72 hours later, alamarBlue (Biosource, Invitrogen) viability assay was performed following manufacturer's protocol. In brief, alamarBlue diluted in media was added to cells to have a 5% solution. Cells were incubated at 37° C., 3 hours and at room temperature, 30 min. Cells with no drug and, cells with no drug and lysed with triton X-100 were used as controls. Fluorescence was monitored at 530 nm excitation and 590 nm emission wavelengths. Results were quantified using Infinite F200 Microplate Reader (Tecan Group, Ltd.). EC50 were calculated as the dose of drugs required to inhibit cell growth by 50%, with Origin 7.0 computer program.

HDACs = test: HDAC inhibition assays, isoform not specified; format: biochemical, human; details: result in words
Experimental: as §1, §2, §3, §4, §5, §6, §9

Hep3B (hepatocarcinoma) = test: alamarBlue viability assay, Hep3B; format: cell-based; details: Homo sapiens, 72 hours
Experimental: as §10, §7, §8

PC3 (prostate) = test: alamarBlue viability assay, PC3; format: cell-based; details: 72 hours
Experimental: as §10, §7, §8

K562 (lymphoma) = test: alamarBlue viability assay, K562; format: cell-based; details: Homo sapiens, 72 hours
Experimental: as §10, §7, §8

NP-9 (pancreas) = test: alamarBlue viability assay, NP-9; format: cell-based; details: 72 hours
Experimental: The NP-9 cell line from pancreas, was provided by Dr. R. Alemany from Translational Research Laboratory (Institut Catala d'Oncologia). (cf., Cascallò, M. et al., “Ras-dependent Oncolysis with an Adenovirus VAI mutant”, Cancer Research, 2003, 63, 5544-5550). This cells was maintained in DMEM:F12 (Invitrogen) supplemented with 10% fetal calf serum (Invitrogen), L-glutamine […] (Invitrogen), pyruvate […] (Invitrogen).
as §7
as §11, with “EC50 were calculated as the dose of drugs required to inhibit cell growth by 50%, with Origin 7.0 computer program.” left out

SK-mel-98 (melanoma) = test: alamarBlue viability assay, SK-mel-98; format: cell-based; details: 72 hours
Experimental: as §10, §7, §11

HepG2 (hepatocarcinoma) = test: alamarBlue viability assay, HepG2; format: cell-based; details: Homo sapiens, 72 hours
Experimental: as §10, §7, §11

A549 (lung) = test: alamarBlue viability assay, A549; format: cell-based; details: Homo sapiens, 72 hours
Experimental: as §10, §7, §11

U87 (glioblastoma) = test: alamarBlue viability assay, U87; format: cell-based; details: 72 hours
Experimental: as §10, §7, §11

MDA-MB-468 (breast) = test: alamarBlue viability assay, MDA-MB-468; format: cell-based; details: Homo sapiens, 72 hours
Experimental: as §10, §7, §11

T98G (glioblastoma) = test: alamarBlue viability assay, T98G; format: cell-based; details: Homo sapiens, 72 hours
Experimental: as §10, §7, §11

T1 sequence (Q92769 whole entry): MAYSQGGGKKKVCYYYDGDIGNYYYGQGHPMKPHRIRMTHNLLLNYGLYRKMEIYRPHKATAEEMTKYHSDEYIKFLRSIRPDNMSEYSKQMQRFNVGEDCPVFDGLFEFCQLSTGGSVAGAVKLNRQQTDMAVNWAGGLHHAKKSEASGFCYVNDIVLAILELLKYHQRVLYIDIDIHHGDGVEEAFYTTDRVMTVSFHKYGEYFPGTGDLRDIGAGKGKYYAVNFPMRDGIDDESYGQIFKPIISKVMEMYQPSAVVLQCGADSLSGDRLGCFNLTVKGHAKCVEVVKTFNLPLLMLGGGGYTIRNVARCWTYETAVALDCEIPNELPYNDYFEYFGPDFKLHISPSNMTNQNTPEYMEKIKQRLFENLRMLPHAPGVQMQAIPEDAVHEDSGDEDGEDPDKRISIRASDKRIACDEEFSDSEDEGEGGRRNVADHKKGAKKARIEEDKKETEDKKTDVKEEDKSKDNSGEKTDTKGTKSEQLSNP
T3 sequence (Q13547 whole entry): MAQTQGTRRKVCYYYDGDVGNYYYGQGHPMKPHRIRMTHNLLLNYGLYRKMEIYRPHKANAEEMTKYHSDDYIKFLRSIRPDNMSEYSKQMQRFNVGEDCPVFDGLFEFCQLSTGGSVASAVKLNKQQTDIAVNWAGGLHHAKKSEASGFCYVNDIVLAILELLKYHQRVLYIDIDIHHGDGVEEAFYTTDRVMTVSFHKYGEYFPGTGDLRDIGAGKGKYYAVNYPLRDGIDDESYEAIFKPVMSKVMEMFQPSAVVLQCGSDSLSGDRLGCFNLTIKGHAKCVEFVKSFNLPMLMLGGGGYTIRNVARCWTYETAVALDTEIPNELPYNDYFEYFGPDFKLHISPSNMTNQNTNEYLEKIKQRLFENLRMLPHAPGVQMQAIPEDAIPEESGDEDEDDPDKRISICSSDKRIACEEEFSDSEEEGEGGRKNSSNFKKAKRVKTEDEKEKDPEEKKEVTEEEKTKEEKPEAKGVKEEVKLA

SMILES	IC50 (human recombinant HDAC 2)	IC50 (human recombinant HDAC 8)	EC50 [1]	IC50 (human recombinant HDAC1)	EC50 [2]	EC50 (MDA-MB-435P (breast))	inhibition of the target of these compounds (i.e. HDACs) (HDACs)	EC50 (Hep3B (hepatocarcinoma))	EC50 (PC3 (prostate))	EC50 (K562 (lymphoma))	EC50 (NP-9 (pancreas))	EC50 (SK-mel-98 (melanoma))	EC50 (HepG2 (hepatocarcinoma))	EC50 (A549 (lung))	EC50 (U87 (glioblastoma))	EC50 (MDA-MB-468 (breast))	EC50 (T98G (glioblastoma))
O=C(O)C(CCCc1ccccc1)CCc1ccccc1 (centres unmarked) [Example 11, 5-Phenyl-2-(2-phenylethyl)pentanoic acid]	100 to 1000 µM	10 to 100 µM	268 µM	100 to 1000 µM	177 µM	253 µM											
CNS(=O)(=O)c1ccc(CC(CCc2ccccc2)C(=O)O)cc1 (centres unmarked) [Example 12, 2-{4-[(methylamino)sulfonyl]benzyl}-4-phenylbutanoic acid]		100 to 1000 µM	5000 µM		5000 µM		clear inhibition										
Cc1ccc(NS(=O)(=O)c2cccc(CCCC(CCc3ccccc3)C(=O)O)c2)cc1 (centres unmarked) [Example 36]	10 to 100 µM	10 to 100 µM			98 µM	125 µM		99.7 µM	168 µM	157 µM	41 µM	170 µM	140 µM	104 µM	105 µM	55.4 µM	118 µM
CNS(=O)(=O)c1cccc(CCCC(CCc2ccccc2)C(=O)O)c1 (centres unmarked) [Example 41, 5-(3-[(Methylamino)sulfonyl]phenyl)-2-(2-phenylethyl)pentanoic acid]	100 to 1000 µM	10 to 100 µM		100 to 1000 µM	644 µM												
CCc1ccc(CCC(CCCc2ccc(S(=O)(=O)Nc3ccccc3)cc2)C(=O)O)cc1 (centres unmarked) [Example 46, 5-[4-(Anilinosulfonyl)phenyl]-2-[2-(4-ethylphenyl)ethyl]pentanoic acid]	10 to 100 µM	≤ 10 µM			54 µM	52 µM		107 µM	55.6 µM		102 µM	78.3 µM	103 µM	62.3 µM	43 µM	99.8 µM	118 µM
